# Where “and” joins values, the source holds several entries; their conditions need not be identical. Equal values may be shown once.
# What was measured:
# [1] = test system: adolescents with Single Ventricle Heart Disease who underwent Fontan palliation; assay: FALD study: liver stiffness by ultrasound shear wave elastography (SWE); format: in vivo, human; set-up: USWE, Post Baseline: unit not given beside the values; USWE, Change from Baseline: unit not given here; conditions: Cohort U− (udenafil for 52 weeks), individual subject
# From the text: Ultrasound SWE uses one or more acoustic radiation force impulses (ARFI) or “push pulses” to generate shear waves in the tissue of interest. These shear waves can be tracked and their speed measured, with increasing tissue stiffness associated with increasing tissue shear wave speed. Shear wave speed can be mathematically converted to both shear and Young's moduli (in kPa), mechanical properties related to tissue rigidity and elasticity. There are two major forms of ultrasound SWE-“point” and “2D”. Point ultrasound SWE provides a very focal estimate of liver stiffness using a small region-of-interest, wh[…] ultrasound SWE provides a regional color parameteric map (elastogram) of image stiffness and allows measurement over a much larger area of the liver. The FALD study, ClinicalTrials.gov Identifier: NCT03430583, which is incorporated herein by reference in its entirety, was an open-label extension study that integrated with the FUEL Extension Trial. […] Both the U- cohort and the U+ cohort had liver stiffness measured by ultrasound and MR elastography (where available), and ELF biomarkers analyzed, as described above. […] The primary outcome measure of the FALD study was the range of liver stiffness in adolescents with Single Ventricle Heart Disease who underwent Fontan palliation. Secondary outcome measures included the effect of drug therapy on liver stiffness, and the effect of drug therapy on Enhanced Liver Fibrosis (ELF) score. See Clinical Trials.gov identifier NCT03430583, at p. 3. It is to be understood that present invention contemplates udenafil drug products that are therapeutically equivalent to the udenafil drug products of the present invention.
# [2] = test system: adolescents with Single Ventricle Heart Disease who underwent Fontan palliation; assay: FALD study: circulating biomarkers of heart failure and liver fibrosis (HA, PIIINP, TIMP-1, BNP and others); format: in vivo, human; set-up: HA, Post Baseline / TIMP−1, Post Baseline: unit not given beside the values; HA, Change from Baseline / TIMP−1, Change from Baseline / BNP, Change from Baseline: unit not given here; conditions: Cohort U− (udenafil for 52 weeks), individual subject
# From the text: As noted previously, increased liver stiffness can be secondary to hepatic congestion and/or hepatic fibrosis. […] For instance, patients with increased liver stiffness due to hepatic congestion may have increased biomarkers of heart failure (e.g., BNP, NT-proBNP). […] The relative contribution of congestion or fibrosis (as determined by biomarker profiles) to the observed level of liver stiffness may correlate with which therapeutic strategies are likely to be successful in a particular patient. Therefore, in this aim, we sought to determine which circulating biomarkers correlate with measures of liver stiffness and which correlate with a change in liver stiffness with udenafil treatment. We used both a directed approach, with an analysis of candidate biomarkers validated for other disease processes, and a non-directed approach, which identifies novel biomarkers associated with FALD. The FALD study, ClinicalTrials.gov Identifier: NCT03430583, which is incorporated herein by reference in its entirety, was an open-label extension study that integrated with the FUEL Extension Trial. […] Both the U− cohort and the U+ cohort had liver stiffness measured by ultrasound and MR elastography (where available), and ELF biomarkers analyzed, as described above. […] The Enhanced Liver Fibrosis (ELF) scores were based on the serum levels of hyaluronic acid (HA), amino-terminal propeptide of type III collagen (PIIINP), and tissue inhibitor of metalloproteinase-1 (TIMP-1). Testing was performed by the FUEL-OLE Central Laboratory using the serum samples. In accordance with prior studies, we assigned those patients with scores of <7.7 to the no-fibrosis or mild fibrosis group, 7.7-9.8 to the moderate fibrosis group, 9.8-11.3 to the severe fibrosis group, and >11.3 to the cirrhosis group.
smiles,measurement,setting,value
"CCCOc1ccc(S(=O)(=O)NCCC2CCCN2C)cc1-c1nc2c(CCC)nn(C)c2c(=O)[nH]1 (stereo not drawn) [Udenafil, udenafil]","USWE, % Change from Baseline",[1],−2.439% and −7.692% and 6.011% and 20.92% and −0.9302% and −22.07% and −1.22%
same,"USWE, Change from Baseline",[1],−0.06 and −0.13 and 0.11 and 0.41 and −0.02 (2×) and −0.49 and 0.09
same,"USWE, Post Baseline",[1]; Post Baseline visit (52 week),2.4 and 1.56 and 1.94 and 2.37 and 2.13 and 1.73 and 1.62 and 2.08
same,"BNP, % Change from Baseline",[2],−83.33% and −55.56% and −96.2963% and −33.75% and −25.17% and −20%
same,"BNP, Change from Baseline",[2],−5 and −25 and −26 and −10.7 and −3.7 and −6.5 and −3
same,"HA, % Change from Baseline",[2],−23.28% and −55.89% and −92.1% and −78.47% and 255.6% and 69.68%
same,"HA, Change from Baseline",[2],−10.87 and −67.92 and −82.42 and −137.35 and 54.28 and 27.67 and 3.05
same,"PIIINP, % Change from Baseline",[2],−52.39% and −50.4522% and 5.12% and −50.05% and −15.3% and 66.2%
same,"PIIINP, Change from Baseline",[2],−19.04 and −15.62 and 0.77 and −23.08 and −2.33 and 9.99 and 1.99
same,"TIMP−1, % Change from Baseline",[2],1.424% and 1.608% and 25.82% and −5.136% and 3.739% and 19.54%
same,"TIMP−1, Change from Baseline",[2],2.3 (2×) and 39.4 and −9.8 and 6.2 and 47.1 and 56.3
same,"BNP, Post Baseline",[2]; Post Baseline visit (52 week),1 (2×) and 20 and 21 and 11 and 26 and 3
same,"HA, Post Baseline",[2]; Post Baseline visit (52 week),35.83 and 53.6 and 7.07 and 37.68 and 75.52 and 67.38 and 23.1
same,"PIIINP, Post Baseline",[2]; Post Baseline visit (52 week),17.3 and 15.34 and 15.81 and 23.03 and 12.9 and 25.08 and 27.3
same,"TIMP−1, Post Baseline",[2]; Post Baseline visit (52 week),163.8 and 145.3 and 192 and 181 and 172 and 288.2 and 290.4

# From patent US20250186448A1 (Mezzion Pharma Co., Ltd., priority 2021, published 2025)
